“Also recorded” adds a separate entry of the source. Strand notation (5' to 3'): a small letter for the sugar, then the base; units joined by * are phosphorothioate-linked, units joined directly phosphodiester-linked; [ ] holds rarer units or linkages, { } end groups; capitals alone tell only the bases. [5OctU] = 5-octadiynyl-2'-deoxyuridine, alkyne click handle; d = 2'-deoxy (DNA); {3P} = phosphate; r = 2'-OH (RNA); {P} = phosphate
Tests used:
[1] = tested on: rabbit reticulocyte lysate (RRL) in vitro translation system; assay: In vitro translation assay in rabbit reticulocyte lysate with or without 4EGI-1; format: biochemical
Protocol: Firefly luciferase reporter mRNA with one cap and Nanoluc mRNA with two caps were synthesized according to protocol mentioned above. The in vitro translation was conducted using Rabbit Reticulocyte Lysate (Nuclease-treated) [Promega, L4960] according to manufacturer's protocol with some modifications. 30% or 40% of rabbit reticulocyte lysate, 4% of SUPERaseIn RNase Inhibitor, amino acid mixture and indicated mRNA were added to the reaction with 4EGI-1 inhibitor (600 μM) or DMSO as control in 50 μL reaction. The reactions were incubated at 30° C. for an hour. Then, […] of the reaction mixture was diluted by 10-fold with PBS. The fluorescence of firefly luciferase was measured with Dual-Glo Luciferase Assay System [Promega, E2920] and the fluorescence of Nanoluc was measured with Nano-Glo Luciferase Assay System [Promega, N1110] according to manufacturer's protocol.

[2] = In vivo imaging of NanoLuc after retro-orbital mRNA-LNP injection; conditions: mice; for NLuc translation of QRNA relative to uncapped m1ψ-circRNA precursor (circRNA-OU): LNP retro-orbital
Protocol: All animal procedures followed animal care guidelines approved by the Institutional Animal Care and Use Committee (IACUC) of the Broad Institute of MIT and Harvard under animal protocol #0255-08-19. Animal experiments were conducted in compliance with IACUC policies and NIH guidelines. The BALB/cj (male, 6~8 weeks old) mice used for in vivo NanoLuc assay in this study were purchased from The Jackson Laboratory (JAX). The C57BL/6 mice (female, 7 weeks old), used for hEPO assay in this study were purchased from The Jackson Laboratory (JAX).
mRNA diluted in 50 mM citrate buffer (pH 4) and lipid mix (37.5 mM in ethanol) containing 50 mol % SM-102, 10 mol % DSPC, 38.5 mol % Cholesterol, and 1.5 mol % DMG-PEG2000 were assembled into LNP using a NanoAssemblr Spark instrument [Precision Nanosystems]. Upon formulation, mRNA-LNPs were diluted in 12 mL 1×PBS solution and the buffer was exchanged by concentrating with a 30 kDa spin filter [MilliporeSigma, UFC901008] to remove residue ethanol. Concentrations and encapsulation efficiency of mRNA were determined using Quant-it RiboGreen RNA Assay Kit [ThermoFisher, R11490]. 1 μg NanoLuc or hEPO mRNA-LNP in a total volume of 100 μL was injected through retro orbital injection into each mouse. Four mice were used for each condition of each experiment (NanoLuc imaging, hEPO ELISA, and reticulocyte counting). For NanoLuc imaging, PBS injection was used as negative control. For hEPO/reticulocyte experiments, poly(C)-LNP complex was used as negative control.
In vivo activity of NanoLuc was measured using a Competent IVIS-Perkin Elmer IVIS Spectrum CT System [Perkin Elmer]. At each time point, mice were anesthetized with isoflurane. The fluorofurimazine substrate with poloxamer-407 [Promega, CS320501] was freshly reconstituted in PBS to a final concentration of ~5.1 mM and injected intraperitoneally (i.p.) into the mice at a dose of ~22 nmol per gram body weight. Mice were imaged 5 mins post injection using auto exposure settings. The luminescent activity was quantified using Aura 4.0 imaging software. The background was determined by including mice injected with poly C-LNP negative control and subtracted from each measurement.

HeLa cells [3] = assay: NLuc bioluminometry of circRNA/QRNA (Fluc transfection control); format: cell-based
Protocol: (§1) Synthetic linear mRNA encoding NanoLuciferase (NLuc) was prepared from DNA template by IVT with 100% m1ψ substitution. The triphosphorylated mRNA after IVT was then treated with Calf Intestinal Alkaline Phosphatase (CIAP) to yield 5′/3′-hydroxyl mRNA. A chemically synthesized oligonucleotide with a branched m7G cap and 5′/3′-phosphates was then ligated to the 5′/3′-hydroxyl mRNA by T4 RNA ligase, which ligates the 5′-phosphate on the oligo and 3′-hydroxyl of the mRNA. The ligation product was then further treated with RtcB ligase, which ligates the 5′-hydroxyl and 3′-phosphate ends to enable intramolecular circularization. […] Using one primer only produced no fragmentation but only linearization, confirming successful circularization. Using double primers produced fragments flanking the branched region, where branched topology was confirmed by gel shift. […] NLuc bioluminometry was measured 8 hrs post transfection and normalized Firefly luciferase as transfection control. Mean±s.e.m., n=3. P values were calculated by ordinary one-way ANOVA (alpha=0.05), with multiple comparisons to circ-NLuc with only 5-octadiynyl deoxyuridine (OU) handle (construct 45). ****P<0.0001, n.s. P>0.05. […] QRNA with m7G (construct 48) was compared. n=3, biological replicates. Mean±sem. P values were calculated by ordinary one-way ANOVA with multiple comparisons against construct 61 without any cotransfected capped oligos (Dunnett's multiple comparison test). […] P values were calculated by unpaired two-sided t-test.
HeLa cells [ATCC, CCL-2] were maintained in DMEM culture media [ThermoFisher Scientific, 119951] containing 10% FBS and 1% penicillin-streptomycin [ThermoFisher Scientific, 15070063] in a 37° C. incubator with 5% CO2 and passaged at a ratio of 1:10 every 3 days. […] Cells were lysed and luciferase activity was measured using the Promega Dual Glo Luciferase Assay System [Promega, E2920]. Firefly luminescence/Renilla luminescence for each well was used as mRNA activity readout. […]

HeLa cells [4] = assay: Two-ORF FLuc/3xHiBiT reporter bioluminometry; format: cell-based; conditions: 8 hrs post transfection
Protocol: as §1
Finally, Applicant evaluated if the branched cap on the QRNA has the ability to initiate translation of open reading frames (ORFs) upstream of it. […] FLuc and HiBiT bioluminometry were evaluated 8 hrs post transfection.
Lastly, to test whether the branched cap could drive the translation for upstream AUG via either proximity looping or bidirectional ribosome scanning to opt for upstream open reading frames (ORFs), Applicant generated a two-ORF reporter mRNA that contained a 5′ full-length FLuc ORF and a 3′ 3×HiBIT ORF with an out-of-frame start codon from the FLuc ORF (construct 62). […]

eIF4E = eIF4E (UniProt P06730 P06730:1-217); assay: EMSA; 50 mM KCl, 10 mM Tris-HCl pH 7.6, 1 mM DTT, 4 C; conditions: tags: His tag, Cayman Chemical 25150
Protocol: Capped oligonucleotides were labeled on the 3′ end using AF647 labeled cytidine-5′-phosphate-3′-(6-aminohexyl) phosphate [Jena Bioscience, NU-1706-AF647] and T4 RNA ligase ligated AF647-labeled cytidine onto the capped oligos using manufacturer's protocols. Oligos were then incubated in the binding buffer (1 mM DTT, 50 mM KCl, 10 mM Tris-HCl (pH 7.6), Novex Hi-Density TBE Sample Buffer [Invitrogen, LC6678]) with varying eIF4E-His [Cayman Chemical Inc, 25150] concentrations prepared by sequential dilutions from the stock solution. The oligos and […] were incubated at 4° C. for 30 mins and characterized by EMSA with Novex TBE Gels, 4-20% [Invitrogen, EC6225BOX] at 4° C. AF647 labeled oligos were imaged with BioRad ChemiDoc MP Imaging System [12003154] and band intensities were quantified using ImageJ. For Kd calculation, the proportions of bound were plotted against eIF4E concentration using GraphPad Prism (Specific binding with Hill slope).
To gain insights into the mechanism of how the topologically branched internal cap initiates mRNA translation, Applicant used fluorophore-labeled mono- or dual-capped oligonucleotides and measured their affinity to eIF4E through EMSA.

Sequence of eIF4E (P06730 whole entry, one chain of several): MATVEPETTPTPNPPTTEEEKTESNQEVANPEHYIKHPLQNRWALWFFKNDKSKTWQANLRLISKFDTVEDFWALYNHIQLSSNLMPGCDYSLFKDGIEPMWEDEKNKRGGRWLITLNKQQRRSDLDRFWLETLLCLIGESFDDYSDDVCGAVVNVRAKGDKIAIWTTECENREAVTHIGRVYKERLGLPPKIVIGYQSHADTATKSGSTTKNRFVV

For `O=C(O)C(Cc1ccccc1[N+](=O)[O-])=NNc1nc(-c2ccc(Cl)c(Cl)c2)cs1` (mixture of isomers) [4EGI-1], the “Translation of mono- and dual-capped mRNA in RRL” value ([1]; 600 μM 4EGI-1 coupled with reduction of RRL % to 30%) was “almost completely halted translation” and the “Translation of mono- and dual-capped mRNA in RRL in presence of 4EGI-1” value ([1]; 4EGI-1 600 μM or DMSO) was “inhibited translation of dual-capped mRNA; also recorded: significantly reduced”.

In the case of “construct 49: m1ψ NLuc QRNA with LNAm7G branched cap (SEQ ID NO: 115) ({P}-rArArArArArArAd[5OctU]rArArArArArA-{3P}; ligated into m1Ψ circRNA, LNA-m7G-capped LNA/2'-OMe branch oligo clicked at octadiynyl-dU)”, the “NLuc translation of QRNA relative to uncapped m1ψ-circRNA precursor (circRNA-OU)” value ([2]; 8 hrs) is reported as 17 ×, the “NLuc translation of QRNA relative to uncapped m1ψ-circRNA precursor (circRNA-OU)” value ([2]; 24 hrs) is reported as 30 × and the “NLuc translation of QRNA relative to uncapped m1ψ-circRNA precursor (circRNA-OU)” value ([2]; 48 hrs) is reported as 59 ×. For the same molecule, the “Time of peak NLuc bioluminescence / translation in vivo” value ([2]; LNP, retro-orbital injection) was 24 h and the “NLuc protein production increase of modified circRNA/QRNA” value (HeLa cells [3]; HeLa cells, 8 hrs post transfection, compared to circ-NLuc with only OU handle (construct 45)) was “up to 144 fold”.

With “construct 64: two-ORF FLuc-3×HiBiT QRNA with LNAm7G branched cap (SEQ ID NO: 119) ({P}-rArArArArArArAd[5OctU]rArArArArArA-{3P}; ligated into circRNA, LNA-m7G-capped LNA/2'-OMe branch oligo clicked at octadiynyl-dU, further chemistry not fully specified)” the “FLuc ORF expression, QRNA vs circRNA (uncapped control)” value (HeLa cells [4]) was 166 fold, the “HiBiT ORF expression, QRNA vs circRNA (uncapped control)” value (HeLa cells [4]) was 18.7 fold and the “Translation of upstream HiBiT and downstream FLuc ORFs, result in words” value (HeLa cells [4]) was “both the HiBiT and FLuc ORFs were enhanced”.

B1: 2xLNAm7G dual-capped branched (42) (ssRNA)
RNA 1: AGAUAAAUAAAAAA
RNA 2: AGAGAUAA
modifications: LNA-m7G cap on both 5' ends; second strand 3'-azide clicked to 5-octadiynyl-dU at position 8 of first strand
With B1 the Kd (eIF4E; label: AF647-cytidine, branched) was 1.28 µM.

AGAUAAAUAAAAAA (ssRNA, 5' m7G cap; 5-octadiynyl-dU at position 8) [1xm7G-OU (28)] gave a Kd (eIF4E; label: 3' AF647-cytidine) of 2.21 µM.

B2: construct S19: Bn7G-capped Nluc QRNA with globin UTRs, TGT/preQ1-azide labeled, uridine-containing (SEQ ID NO: 133) (nucleic acid)
chain: UAGUCUCGAGCUGGUACUGCAUGCACGCAAUGCUAGCUGCCCCUUUCCCGUCCUGGGUACCCCGAGUCUCCCCCGACCUCGGGUCCCAGGUAUGCUCCCACCUCCACCUGCCCCACUCACCACCUCUGCUAGUUCCAGACACCUCCCAAGCACGCAGCAAUGCAGCUCAAAACGCUUAGCCUAGCCACACCCCCACGGGAAACAGCAGUGAUUAACCUUUAGCAAUAAACGAAAGUUUAACUAAGCUAUACUAACCCCAGGGUUGGUCAAUUUCGUGCCAGCCACACCCUGGAGCUAGCAAAAAAAAAAAAAAAAAAAAAAAAAAAAAAAAAAAAAAACUCAGUAGAUGUUUUCUUGGGUUAAUUGAGGCCUGAGUAUAAGGUGACUUAUACUUGUAAUCUAUCUAAACGGGGAACCUCUCUAGUAGACAAUCCCGUGCUAAAUUGUAGGACUGCCCUUUAAUAAAUACUUCUAUAUUUAAAGAGGUAUUUAUGAAAAGCGGAAUUUAUCAGAUUAAAAAUACUUUCUCUAGAGUCGACCUGCAG
modifications: Bn7G cap; TGT/preQ1-azide label
For B2, the “Nluc translation of QRNA vs circRNA, result in words” value (HeLa cells [3]; circRNA with and without IRES, uridine-containing) was “translated much more efficiently than its circRNA counterpart”.
